Experimental data from ChEMBL document CHEMBL4145695, “Histone Deacetylase 6-Selective Inhibitors and the Influence of Capping Groups on Hydroxamate-Zinc Denticity” (J Med Chem, 2018).

Key:
[1] = biological target: Histone deacetylase 1 (Homo sapiens, UniProt Q13547); experiment: Inhibition of human recombinant HDAC1 incubated for 90 mins using fluorogenic substrate ZMAL (Z-Lys(Ac)-AMC) by fluorescence based assay
[2] = biological target: T1, Protein deacetylase HDAC6 (Homo sapiens, UniProt Q9UBN7); experiment: Inhibition of human recombinant HDAC6 incubated for 90 mins using fluorogenic substrate ZMAL (Z-Lys(Ac)-AMC) by fluorescence based assay
T1 sequence (Q9UBN7 whole entry): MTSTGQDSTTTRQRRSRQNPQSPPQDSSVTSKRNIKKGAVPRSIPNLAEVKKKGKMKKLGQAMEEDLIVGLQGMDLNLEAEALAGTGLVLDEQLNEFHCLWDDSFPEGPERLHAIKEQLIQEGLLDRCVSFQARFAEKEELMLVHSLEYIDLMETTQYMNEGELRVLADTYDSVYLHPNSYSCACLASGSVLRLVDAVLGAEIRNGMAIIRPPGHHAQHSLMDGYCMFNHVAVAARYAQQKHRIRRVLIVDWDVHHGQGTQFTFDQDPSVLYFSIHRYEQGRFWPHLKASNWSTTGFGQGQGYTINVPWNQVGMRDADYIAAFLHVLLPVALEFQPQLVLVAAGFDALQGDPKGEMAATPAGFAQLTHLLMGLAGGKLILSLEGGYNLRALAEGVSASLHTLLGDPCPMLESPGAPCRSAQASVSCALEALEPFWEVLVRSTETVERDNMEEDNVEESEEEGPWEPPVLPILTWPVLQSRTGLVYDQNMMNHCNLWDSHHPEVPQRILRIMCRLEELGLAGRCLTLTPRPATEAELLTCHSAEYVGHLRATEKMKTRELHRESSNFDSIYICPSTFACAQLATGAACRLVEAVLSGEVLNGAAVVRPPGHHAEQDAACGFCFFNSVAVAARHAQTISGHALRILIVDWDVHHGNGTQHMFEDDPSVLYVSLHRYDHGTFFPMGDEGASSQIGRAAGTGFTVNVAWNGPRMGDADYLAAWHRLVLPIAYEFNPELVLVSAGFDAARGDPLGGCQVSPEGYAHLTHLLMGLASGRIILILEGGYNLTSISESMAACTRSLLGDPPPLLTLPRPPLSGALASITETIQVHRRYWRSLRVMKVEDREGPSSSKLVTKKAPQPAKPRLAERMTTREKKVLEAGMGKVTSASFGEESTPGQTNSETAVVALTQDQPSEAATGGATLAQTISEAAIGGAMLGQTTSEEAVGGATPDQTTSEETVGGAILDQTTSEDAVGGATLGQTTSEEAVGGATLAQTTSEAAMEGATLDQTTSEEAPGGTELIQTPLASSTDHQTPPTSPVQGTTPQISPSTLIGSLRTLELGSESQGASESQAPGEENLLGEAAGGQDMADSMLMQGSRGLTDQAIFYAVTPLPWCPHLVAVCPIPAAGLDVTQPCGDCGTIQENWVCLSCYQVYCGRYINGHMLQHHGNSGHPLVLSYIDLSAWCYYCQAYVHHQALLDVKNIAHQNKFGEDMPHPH

[3] = species: Homo sapiens; experiment: Selectivity index, ratio of IC50 for inhibition of human recombinant HDAC1 to IC50 for inhibition of human recombinant HDAC6

Histone deacetylase 1, sequence (Q13547 whole entry): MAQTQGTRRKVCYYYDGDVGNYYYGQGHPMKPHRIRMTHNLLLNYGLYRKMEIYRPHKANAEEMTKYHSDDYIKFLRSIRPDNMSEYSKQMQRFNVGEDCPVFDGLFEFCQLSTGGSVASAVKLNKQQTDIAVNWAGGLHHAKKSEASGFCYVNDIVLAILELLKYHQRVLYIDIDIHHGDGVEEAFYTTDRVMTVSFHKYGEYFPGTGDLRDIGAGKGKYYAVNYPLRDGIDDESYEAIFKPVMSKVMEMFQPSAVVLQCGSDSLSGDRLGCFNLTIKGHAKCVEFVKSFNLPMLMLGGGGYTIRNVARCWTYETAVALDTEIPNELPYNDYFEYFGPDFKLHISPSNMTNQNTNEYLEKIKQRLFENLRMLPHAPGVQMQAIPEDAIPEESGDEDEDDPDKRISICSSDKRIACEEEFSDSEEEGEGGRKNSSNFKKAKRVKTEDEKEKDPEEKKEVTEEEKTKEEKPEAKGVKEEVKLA

| IC50 [1] [µM] | IC50 [2] [µM] | Ratio IC50 [3] | SMILES |
| --- | --- | --- | --- |
| > 1000 |  |  | CN(Cc1ccc(C(=O)NO)cc1F)CC12CC3CC(CC(C3)C1)C2 |
| 0.27 | 0.011 | 25 | Cc1cc(C)cc(C(=O)N(CC(=O)NC2CCCCC2)Cc2ccc(C(=O)NO)cc2)c1 |
| 0.008 | 0.014 | 0.6 | CN(C)c1ccc(C(=O)N(CC(=O)NCc2ccccc2)Cc2ccc(C(=O)NO)cc2)cc1 |
